Measured values taken from US10292412B2, “High solubility natural sweetener compositions” (KRAFT FOODS GLOBAL BRANDS LLC, priority 2012, dated 2019).

Assays:
[1] = Example 3: solubility (1-5 scale) after seven days; ambient water, heated water or 0.45 micron filtered rebaudioside A solutions with citric acid and ethanol; type: physicochemical
Method: Several solutions including rebaudioside A were prepared to test the effect of heating and filtering on the solubility of rebaudioside A. The formulations are as follows: […]
The solutions for the ambient water experimentation were prepared by dissolving rebaudioside A in ambient water (about 68° F. to about 77° F.) using a magnetic stir bar. Citric acid and ethanol were then dissolved into the solution using a magnetic stir bar.
The solutions for the heated water experimentation were prepared by heating water to 150° F. Rebaudioside A was added and dissolved using a magnetic stir bar. The solution was removed from the heat and citric acid was added and dissolved by a magnetic stir bar. After the solution cooled to 100° F. or below, ethanol was added and stirred into the solution by a magnetic stirrer.
The solutions for the filtered rebaudioside A experimentation were prepared by first dissolving rebaudioside A in ambient water (about 68° F. to about 77° F.) using a magnetic stir bar. The solution was then passed through a 0.45 micron filter. Citric acid and ethanol were dissolved into the solution using a magnetic stir bar.
Solubility was measured according to the 1-5 scale in the table above after seven days. […]

[2] = Example 2: solubility of rebaudioside A in liquid concentrates with varying water, acid and alcohol; type: physicochemical; set-up: scale not given here
Method: Liquid concentrate formulations were prepared including varying levels of rebaudioside A, water, alcohol, and acid. The solubility was measured at various concentrations of each of the components and the results are included in the tables below: […]

SMILES: C=C1C[C@@]23CC[C@H]4[C@@](C)(CCC[C@@]4(C)C(=O)O[C@@H]4O[C@H](CO)[C@@H](O)[C@H](O)[C@H]4O)[C@@H]2CC[C@]1(O[C@@H]1O[C@H](CO)[C@@H](O)[C@H](O[C@@H]2O[C@H](CO)[C@@H](O)[C@H](O)[C@H]2O)[C@H]1O[C@@H]1O[C@H](CO)[C@@H](O)[C@H](O)[C@H]1O)C3 [Reb A, rebaudioside A]
- solubility after seven days ([1]; ambient water, 5 wt % rebaudioside A, all ethanol/acid conditions tested except high ethanol (30% by volume) and high acid (30% by weight)): crystallized
- solubility after seven days ([1]; ambient water, 10 wt % rebaudioside A, high ethanol (30% by volume) and high acid (30% by weight)): failed
- solubility after seven days ([1]; ambient water, filtered at 0.45 micron, 5 wt % rebaudioside A, all points except low acid/low ethanol): passed
- solubility after seven days ([1]; heated water (150° F.), 5 wt % rebaudioside A, all ethanol/acid points): passed
- solubility after seven days ([1]; heated water (150° F.), 10 wt % rebaudioside A, all ethanol/acid points): passed
- solubility after seven days ([1]; heated water (150° F.), 15 wt % rebaudioside A, low ethanol (10%)/low acid (10%)): failed
- solubility after seven days ([1]; heated water (150° F.), 15 wt % rebaudioside A, medium ethanol (20%)/low acid): failed
- Response 1 Solubility ([2]; Water/Citric Acid/Ethanol (190 Proof)/RebA 0.00/0/92.44/7.5600 ml): 5
- Response 1 Solubility ([2]; Water/Citric Acid/Ethanol (190 Proof)/RebA 0.00/21.92/77.48/0.6048 ml): 1
- Response 1 Solubility ([2]; Water/Citric Acid/Ethanol (190 Proof)/RebA 39.71/32.88/19.85/7.5600 ml): 1
- Response 1 Solubility ([2]; Water/Citric Acid/Ethanol (190 Proof)/RebA 47.96/0/47.96/4.0824 ml): 1
- Response 1 Solubility ([2]; Water/Citric Acid/Ethanol (190 Proof)/RebA 59.56/32.88/0.00/7.5600 ml): 2
- Response 1 Solubility ([2]; Water/Citric Acid/Propylene Glycol/RebA 0.00/0/92.44/7.5600 ml): Insoluble
- Response 1 Solubility ([2]; Water/Citric Acid/Propylene Glycol/RebA 0.00/0/99.40/0.6048 ml): 1
- Response 1 Solubility ([2]; Water/Citric Acid/Propylene Glycol/RebA 0.00/21.92/77.48/0.6048 ml): Insoluble
- Response 1 Solubility ([2]; Water/Citric Acid/Propylene Glycol/RebA 33.13/0/66.26/0.6048 ml): 1
- Response 1 Solubility ([2]; Water/Citric Acid/Propylene Glycol/RebA 33.13/10.96/55.30/0.6048 ml): 1
- Response 1 Solubility ([2]; Water/Citric Acid/Propylene Glycol/RebA 39.71/32.88/19.85/7.5600 ml): Insoluble
- Response 1 Solubility ([2]; Water/Citric Acid/Propylene Glycol/RebA 47.96/0/47.96/4.0824 ml): 2
- Response 1 Solubility ([2]; Water/Citric Acid/Propylene Glycol/RebA 49.65/24.66/19.87/5.8212 ml): 2
- Response 1 Solubility ([2]; Water/Citric Acid/Propylene Glycol/RebA 55.30/10.96/33.13/0.6048 ml): 1
- Response 1 Solubility ([2]; Water/Citric Acid/Propylene Glycol/RebA 59.56/32.88/0.00/7.5600 ml): 2
- Response 1 Solubility ([2]; Water/Citric Acid/Propylene Glycol/RebA 59.61/16.44/19.87/4.0824 ml): 2
- Response 1 Solubility ([2]; Water/Citric Acid/Propylene Glycol/RebA 66.26/0/33.13/0.6048 ml): 1
- Response 1 Solubility ([2]; Water/Citric Acid/Propylene Glycol/RebA 66.52/32.88/0.00/0.6048 ml): 1
- Response 1 Solubility ([2]; Water/Citric Acid/Propylene Glycol/RebA 69.57/8.22/19.87/2.3436 ml): 3
- Response 1 Solubility ([2]; Water/Citric Acid/Propylene Glycol/RebA 79.48/16.44/0.00/4.0824 ml): 3
- Response 1 Solubility ([2]; Water/Citric Acid/Propylene Glycol/RebA 92.44/0/0.00/7.5600 ml): 5
- Response 1 Solubility ([2]; Water/Citric Acid/Propylene Glycol/RebA 99.40/0/0.00/0.6048 ml): 3
- Response 1 Solubility ([2]; Water/Malic Acid/Ethanol (200 Proof)/RebA 0.00/0/92.44/7.5600 ml): Insoluble
- Response 1 Solubility ([2]; Water/Malic Acid/Ethanol (200 Proof)/RebA 0.00/0/99.40/0.6048 ml): Insoluble
- Response 1 Solubility ([2]; Water/Malic Acid/Ethanol (200 Proof)/RebA 0.00/10.96/88.44/0.6048 ml): 5
- Response 1 Solubility ([2]; Water/Malic Acid/Ethanol (200 Proof)/RebA 55.30/10.96/33.13/0.6048 ml): 1
- Response 1 Solubility ([2]; Water/Phosphoric Acid/Ethanol (190 Proof)/RebA 0.00/0.00/92.44/7.56 ml): Insoluble
- Response 1 Solubility ([2]; Water/Phosphoric Acid/Ethanol (190 Proof)/RebA 0.00/0.00/99.40/0.60 ml): Insoluble
- Response 1 Solubility ([2]; Water/Phosphoric Acid/Ethanol (190 Proof)/RebA 0.00/30.81/61.63/7.56 ml): Insoluble
- Response 1 Solubility ([2]; Water/Phosphoric Acid/Ethanol (190 Proof)/RebA 0.00/33.13/66.26/0.60 ml): 1
- Response 1 Solubility ([2]; Water/Phosphoric Acid/Ethanol (190 Proof)/RebA 0.00/47.96/47.96/4.08 ml): Insoluble
- Response 1 Solubility ([2]; Water/Phosphoric Acid/Ethanol (190 Proof)/RebA 0.00/66.26/33.13/0.60 ml): 1
- Response 1 Solubility ([2]; Water/Phosphoric Acid/Ethanol (190 Proof)/RebA 0.00/92.44/0.00/7.56 ml): Insoluble
- Response 1 Solubility ([2]; Water/Phosphoric Acid/Ethanol (190 Proof)/RebA 0.00/99.40/0.00/0.60 ml): Insoluble
- Response 1 Solubility ([2]; Water/Phosphoric Acid/Ethanol (190 Proof)/RebA 15.99/15.99/62.21/5.82 ml): 2
- Response 1 Solubility ([2]; Water/Phosphoric Acid/Ethanol (190 Proof)/RebA 15.99/39.10/39.10/5.82 ml): 2
- Response 1 Solubility ([2]; Water/Phosphoric Acid/Ethanol (190 Proof)/RebA 15.99/62.21/15.99/5.82 ml): Insoluble
- Response 1 Solubility ([2]; Water/Phosphoric Acid/Ethanol (190 Proof)/RebA 30.81/61.63/0.00/7.56 ml): Insoluble
- Response 1 Solubility ([2]; Water/Phosphoric Acid/Ethanol (190 Proof)/RebA 33.13/0.00/66.26/0.60 ml): 1
- Response 1 Solubility ([2]; Water/Phosphoric Acid/Ethanol (190 Proof)/RebA 33.13/33.13/33.13/0.60 ml): 1
- Response 1 Solubility ([2]; Water/Phosphoric Acid/Ethanol (190 Proof)/RebA 33.13/66.26/0.00/0.60 ml): Insoluble
- Response 1 Solubility ([2]; Water/Phosphoric Acid/Ethanol (190 Proof)/RebA 39.10/15.99/39.10/5.82 ml): 2
